Laboratory results taken from ChEMBL document CHEMBL1201862, “PubChem BioAssay data set” (2004).
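Cultured in 96-well plates, cells were exposed to test compound for 48 hours across five concentrations. The concentration for 50% growth inhibition is given as GI50.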 The source made the active and inactive calls. Cut-off read from the data, not from the text of the source: active = GI50 up to about 1.1 µM and inactive = higher.

How the values were obtained:
Assay in all cases: DTP human tumour cell line panel, 48 h
RPMI-8226 = system: RPMI-8226
SK-MEL-5 = system: SK-MEL-5
HL-60 = system: HL-60
Malme-3M = system: Malme-3M
ACHN = system: ACHN
HT-29 = system: HT-29
UACC-257 = system: UACC-257
NCI/ADR-RES = system: NCI/ADR-RES
K562 = system: K562
OVCAR-4 = system: OVCAR-4
786-0 = system: 786-0
SF-268 = system: SF-268
TK-10 = system: TK-10
EKVX = system: EKVX
U-251 = system: U-251
T47D = system: T47D
HOP-92 = system: HOP-92
LOX IMVI = system: LOX IMVI
BT-549 = system: BT-549
SR = system: SR

Compound | GI50 (RPMI-8226) | GI50 (SK-MEL-5) | GI50 (HL-60) | GI50 (Malme-3M) | GI50 (ACHN) | GI50 (HT-29) | GI50 (UACC-257) | GI50 (NCI/ADR-RES) | GI50 (K562) | GI50 (OVCAR-4) | GI50 (786-0) | GI50 (SF-268) | GI50 (TK-10) | GI50 (EKVX) | GI50 (U-251) | GI50 (T47D) | GI50 (HOP-92) | GI50 (LOX IMVI) | GI50 (BT-549) | GI50 (SR)
CCCCc1ccc(Nc2nc(N)c3[nH]cnc3n2)cc1 | 25.4 µM (inactive) | 17 µM (inactive) | 18.7 µM (inactive) | 22.2 µM (inactive) | 17 µM (inactive) | 13.8 µM (inactive) | 26.5 µM (inactive) | 15.2 µM (inactive) | 28.1 µM (inactive) | 24.5 µM (inactive) | 17.2 µM (inactive) | 14.9 µM (inactive) | 16.4 µM (inactive) | 19.6 µM (inactive) | 24.4 µM (inactive) | 35.1 µM (inactive) | 15.5 µM (inactive) | 18.4 µM (inactive) | 21.5 µM (inactive) | –
COc1cc2c(cc1O)C1CC(CC3CCCCN31)OC(=O)/C=C\c1ccc(O)c-2c1 (stereo not given) | 27 µM (inactive) | 16.8 µM (inactive) | 27.8 µM (inactive) | 19.5 µM (inactive) | 31.6 µM (inactive) | 20.5 µM (inactive) | 19.1 µM (inactive) | 23.8 µM (inactive) | 28 µM (inactive) | 27.3 µM (inactive) | 32.4 µM (inactive) | 24.9 µM (inactive) | 26.4 µM (inactive) | 41.6 µM (inactive) | 35 µM (inactive) | 18.5 µM (inactive) | 15.5 µM (inactive) | 16.7 µM (inactive) | 27.9 µM (inactive) | –
CC(CN(C)C)C(=O)c1ccccc1C(=O)O (stereo not given) | 18.5 µM (inactive) | 28.5 µM (inactive) | 22.7 µM (inactive) | 22 µM (inactive) | 35.6 µM (inactive) | 38.7 µM (inactive) | – | 29.1 µM (inactive) | 30.9 µM (inactive) | 35.5 µM (inactive) | 24.2 µM (inactive) | 14.1 µM (inactive) | 19.5 µM (inactive) | 51.1 µM (inactive) | 16.1 µM (inactive) | 37.1 µM (inactive) | 41.9 µM (inactive) | 33.4 µM (inactive) | 9.59 µM (inactive) | –
CCOC(=O)c1nnc2c(C#N)c(-c3ccccc3)c(C)n2c1N | 22.7 µM (inactive) | 39.9 µM (inactive) | – | 20.7 µM (inactive) | 29.9 µM (inactive) | 33.7 µM (inactive) | 25.4 µM (inactive) | 38.8 µM (inactive) | 31.8 µM (inactive) | 10.9 µM (inactive) | 56.1 µM (inactive) | 37.7 µM (inactive) | 37 µM (inactive) | 38 µM (inactive) | 38 µM (inactive) | 53.7 µM (inactive) | – | 34.7 µM (inactive) | 40.4 µM (inactive) | 36.1 µM (inactive)
CC(=O)OC12CC(C(F)(F)F)(C(F)(F)F)OC1(OC(C)=O)CC(C(F)(F)F)(C(F)(F)F)O2 (stereo not given) | 0.7 µM (active) | 0.385 µM (active) | 1.89 µM (inactive) | 4.86 µM (inactive) | 0.287 µM (active) | 5.28 µM (inactive) | 3.13 µM (inactive) | 10.9 µM (inactive) | 0.612 µM (active) | 4.23 µM (inactive) | 2.9 µM (inactive) | 1.58 µM (inactive) | 8.28 µM (inactive) | – | 1.63 µM (inactive) | 1.34 µM (inactive) | – | 1.73 µM (inactive) | 5.42 µM (inactive) | 2.55 µM (inactive)
Cc1nc2c(=S)[nH]ncc2[nH]1 | > 100 µM (inactive) | > 100 µM (inactive) | > 100 µM (inactive) | 94.8 µM (inactive) | > 100 µM (inactive) | > 100 µM (inactive) | > 100 µM (inactive) | > 100 µM (inactive) | > 100 µM (inactive) | > 100 µM (inactive) | > 100 µM (inactive) | – | > 100 µM (inactive) | > 100 µM (inactive) | > 100 µM (inactive) | > 100 µM (inactive) | > 100 µM (inactive) | > 100 µM (inactive) | > 100 µM (inactive) | –
N/C(=N\NC(=O)c1nc2ccccc2s1)c1ccccn1 | 2.46 µM (inactive) | 4.24 µM (inactive) | 0.452 µM (active) | 30 µM (inactive) | 2.87 µM (inactive) | 4.08 µM (inactive) | 15.6 µM (inactive) | 1.11 µM (active) | 4.5 µM (inactive) | 0.706 µM (active) | 4.33 µM (inactive) | 6.87 µM (inactive) | 7.8 µM (inactive) | 3.68 µM (inactive) | 4.79 µM (inactive) | 10.6 µM (inactive) | > 34 µM (inactive) | 4.93 µM (inactive) | 31.3 µM (inactive) | –
Nc1n[n+]([O-])c2cnccc2[n+]1[O-] | > 100 µM (inactive) | 16.4 µM (inactive) | 13.6 µM (inactive) | > 10 µM (inactive) | 50.9 µM (inactive) | 39.1 µM (inactive) | 24 µM (inactive) | 78 µM (inactive) | – | 56.2 µM (inactive) | 70.6 µM (inactive) | 93.8 µM (inactive) | > 100 µM (inactive) | – | 58.2 µM (inactive) | 59.7 µM (inactive) | – | 52.2 µM (inactive) | 45.2 µM (inactive) | 54.7 µM (inactive)
CN(C(=O)[C@@H](NC(=O)OC(C)(C)C)c1ccccc1)[C@H]1CCCC[C@@H]1N1CCCC1 | > 100 µM (inactive) | > 100 µM (inactive) | > 100 µM (inactive) | – | > 100 µM (inactive) | > 100 µM (inactive) | 72.6 µM (inactive) | > 100 µM (inactive) | > 100 µM (inactive) | > 100 µM (inactive) | > 100 µM (inactive) | > 100 µM (inactive) | > 100 µM (inactive) | > 100 µM (inactive) | > 100 µM (inactive) | > 100 µM (inactive) | – | – | > 100 µM (inactive) | > 100 µM (inactive)
CO[C@H]1C=C[C@]23c4cc5c(cc4CN(CC2O)[C@@H]3C1)OCO5 (stereo not given in full) | 2.82 µM (inactive) | 2.29 µM (inactive) | 0.179 µM (active) | 2.15 µM (inactive) | 0.678 µM (active) | 2.06 µM (inactive) | 3.15 µM (inactive) | 4.98 µM (inactive) | 2.04 µM (inactive) | 1.78 µM (inactive) | 1.91 µM (inactive) | 2.17 µM (inactive) | 3.18 µM (inactive) | 3.57 µM (inactive) | 2.51 µM (inactive) | 1.56 µM (inactive) | 0.336 µM (active) | 2.18 µM (inactive) | 2.36 µM (inactive) | –
N#Cc1c(N2CCN(c3ccc([N+](=O)[O-])cc3)CC2)[n+]([O-])c2ccccc2[n+]1[O-] | 6.5 µM (inactive) | > 100 µM (inactive) | – | > 100 µM (inactive) | > 100 µM (inactive) | > 100 µM (inactive) | > 100 µM (inactive) | 79.4 µM (inactive) | 6.78 µM (inactive) | > 100 µM (inactive) | > 100 µM (inactive) | 0.346 µM (active) | > 100 µM (inactive) | > 100 µM (inactive) | 78.2 µM (inactive) | 55.6 µM (inactive) | – | 32.4 µM (inactive) | > 100 µM (inactive) | 1.28 µM (inactive)
